Legend:
[1] = Hemolysis of human erythrocytes; format: cell-based; settings: 200 μM compound, 1 h, 37 °C
Description: (§1) The human erythrocyte concentrate was prepared according to the kit manual from the Biomaterial Hemolytic Assay Kit (Hemoscan). After the human erythrocytes had been washed and diluted with manufacture buffer, 100 μL of erythrocytes (10%) were added into 100 μL of various concentrations of compounds in PBS. 1% of Triton X (1%) was the positive control, while PBS was the negative control. The erythrocytes were then gently mixed with the TPA compounds and further incubated for an hour at 37 °C. After that, the erythrocytes were centrifuged (1000 rpm, 5 min), and 20 μL of supernatant was added to 180 μL of PBS in a 96-well plate. The optical density at 380, 415, and 450 nm was measured by a plate reader. The final OD value of the compounds was calculated as (2 × OD415) – (OD450 + OD380) where OD380, OD415, and OD450 are the optical density of the solution at 380, 415, and 450 nm, respectively. The hemolysis rates of the compounds were calculated as (ODcompound – ODPBS)/(ODTritonX – ODPBS) × 100% where ODcompound, ODPBS, and ODTritonX are the final OD values of the erythrocytes mixed with TPA compounds, PBS, and 1% Triton X, respectively. The experiment was performed in triplicate.

[2] = tested on: human erythrocytes; assay: Hemolysis of human erythrocytes; format: cell-based
Description: as §1

[3] = tested on: MRSA (ATCC 43300); assay: Wound infection mouse model, MRSA biofilm; format: in vivo; settings: mice, topical 90 μM, 600 nm 15 min, every 24 h for 4 days (TPA-1 + L)
Description: All in vivo experiments were approved by the Department of Science and Technology of Zhejiang Province (SYXK(Zhejiang)2021-0043). Female BALB/c mice (10–12 weeks old) were kept in 12 h light and 12 h dark cycle with access to free food and water for 7 days before and throughout the experiment. The backs of the mice were shaved and disinfected with iodine. A full-thickness circular wound (7 mm in diameter) was then created at the back of the mice. The mice were allowed to recover for 24 h after surgery to prevent sepsis.[65] Ten μL of 1× 10^8 CFU/mL MRSA (ATCC 43300) or P. aeruginosa (ATCC 27853) in saline was added to the wound. The wound was covered with an adhesive dressing for 24 h of infection. Next, the mice were randomly divided into four groups: (1) 50 μL TPA-1 (90 μM) with 600 nm light irradiation (60 mW/cm^2) for 15 min, (2) 50 μL TPA-1 (90 μM) in dark, (3) 50 μL saline with 600 nm light irradiation (60 mW/cm^2) for 15 min, and (4) 50 μL saline in dark. For light irradiation groups, TPA-1 and saline were incubated on the wound for 10 min before irradiation. The treatment was sustained for 4 days. The wound size and body weight of the mice were recorded every day. On day 6, the mice were euthanatized, and the wound tissue was collected. […] The other half of the tissue was homogenized, and the number of viable bacteria was measured by the plate counting method.

[4] = tested on: planktonic S. aureus; assay: Photodynamic eradication of planktonic bacteria; format: cell-based, Staphylococcus aureus; settings: 2 μM, 600 nm (60 mW/cm^2)
Description: For planktonic bacteria, an overnight culture of S. aureus or P. aeruginosa was diluted 100 times in TSB and grown to OD = 1. The bacteria cultures were then diluted to […] in PBS. TPA-1 (2 μM) was added to the diluted cultures and incubated under darkness for 20 min at 30 °C. Bacterial cultures of 200 μL were transferred to the wells of a 96-well plate. The plate was irradiated by 600 nm light (60 mW/cm^2) for 30 and 45 min. Then, the bacterial cultures were serially diluted, and the number of viable bacteria was counted using the plate counting method.

[5] = tested on: S. aureus; assay: Resistance development assay on S. aureus; format: cell-based, Staphylococcus aureus
Description: The MICs for TPA-1 and norfloxacin against S. aureus were first determined by the above-mentioned method. The wells with 0.5 × MIC of compounds were transferred to 1 mL fresh MHB and incubated under darkness for 3–4 h at 37 °C. The bacteria were then used to conduct a MIC assay again. The experiments were repeated for 20 days. The fold changes in the MIC values of the compounds were recorded. The experiments were performed in duplicate.

[6] = tested on: S. aureus; assay: Time-kill kinetics against S. aureus; format: cell-based, Staphylococcus aureus; settings: 2 × MIC (6.25 μM), dark
Description: Similar to the MIC assay, the overnight culture of S. aureus incubated under darkness was diluted in fresh MHB and grown to the mid log phase. The S. aureus was then diluted to 1 × 10^6 CFU/mL in cation-adjusted MHB. Three mL of diluted S. aureus was transferred into a 15 mL culture tube. 2 × MIC and 4 × MIC of TPA-1 was added into the bacterial culture and incubated under darkness for 24 h. 2 × MIC of vancomycin and PBS were taken as the positive and negative controls, respectively. At time 0, 0.5, 1, 2, 4, 6, 8, and 24 h, 20 μL of the bacteria culture was taken out. The bacteria were serially diluted, and the number of viable bacteria was recorded using the plate counting method. The experiment was performed in triplicate.

## C#CCC[n+]1c(/C=C/c2ccc(-c3ccc(N(c4ccc(OCCC[N+](C)(C)C)cc4)c4ccc(OCCC[N+](C)(C)C)cc4)cc3)s2)sc2ccccc21.[Br-].[Br-].[Br-] [TPA-1]
[1]
  hemolysis at 1 h, 200 µM: < 2%
[2]
  HC50: > 200 µM
[3]
  MRSA eradicated in infected tissues: 96% ± 3%
  MRSA log (CFU/mg tissue) reduction: 1.4 ± 0.6 log (CFU/mg tissue)
[4]; 30 min
  planktonic S. aureus eradicated: 99.2% ± 0.7%
  planktonic S. aureus log CFU/mL reduction: 2.2 ± 0.4 log CFU/mL
[4]; 45 min
  planktonic S. aureus eradicated: > 99.99%
  planktonic S. aureus log CFU/mL reduction: > 5 log CFU/mL
[5]; 20 days of passages at 0.5 × MIC
  increase of MIC against S. aureus after treatment for 20 days: 2 fold
[5]; Staphylococcus aureus, read-out: initial MIC against S. aureus in resistance development assay
  MIC: 3.12 µM
[6]
  time to completely eradicate S. aureus: ≤ 2 h

From publication PMC12035805, “A Water-Soluble Aggregation-Induced Emission Photosensitizer with Intrinsic Antibacterial Activity as an Antiplanktonic and Antibiofilm Therapeutic Agent” (Journal of Medicinal Chemistry, 2025)
